Data set [1] deals with CTNNB1. Description: HEK293-TLR7, 100 nM ASO, then resiquimod.
Data set [2] concerns the target CTNNB1. Description: HEK293-TLR8, 100 nM ASO, then resiquimod.

HELM strings list units from the 5' end as sugar, base in round brackets, then linkage (d deoxyribose, r ribose, m 2'-O-methyl, p phosphodiester). [sp] = phosphorothioate linkage

The substance “RNA1{m(C)[sp].m(A)[sp].m(C)[sp].m(C)[sp].m(C)[sp].d(A)[sp].d(C)[sp].d(T)[sp].d(T)[sp].d(G)[sp].d(G)[sp].d(C)[sp].d(A)[sp].d(G)[sp].d(A)[sp].m(C)[sp].m(C)[sp].m(A)[sp].m(U)[sp].m(C)}$$$$” came in with a TLR7 signal (NF-kB luciferase) (% of resiquimod alone) in the data set with CTNNB1 [1] of 91.5. Besides, the TLR8 potentiation (NF-kB luciferase) (fold of resiquimod alone) with CTNNB1 [2] was determined as 1.12.
For “RNA1{m(U)[sp].m(A)[sp].m(G)[sp].m(C)[sp].m(G)[sp].d(T)[sp].d(G)[sp].d(T)[sp].d(C)[sp].d(T)[sp].d(G)[sp].d(G)[sp].d(A)[sp].d(A)[sp].d(G)[sp].m(C)[sp].m(U)[sp].m(U)[sp].m(C)[sp].m(C)}$$$$”, in the data set with CTNNB1 [1], the TLR7 signal (NF-kB luciferase) (% of resiquimod alone) is 60.3. In the data set with CTNNB1 [2], the TLR8 potentiation (NF-kB luciferase) (fold of resiquimod alone) turned out to be 1.56.
Regarding “RNA1{m(A)[sp].m(G)[sp].m(A)[sp].m(U)[sp].m(C)[sp].d(T)[sp].d(G)[sp].d(G)[sp].d(C)[sp].d(A)[sp].d(G)[sp].d(C)[sp].d(C)[sp].d(C)[sp].d(A)[sp].m(U)[sp].m(C)[sp].m(A)[sp].m(A)[sp].m(C)}$$$$”, the TLR7 signal (NF-kB luciferase) (% of resiquimod alone) with CTNNB1 [1] was 55.4. For the same substance, the TLR8 potentiation (NF-kB luciferase) (fold of resiquimod alone) with CTNNB1 [2] stood at 1.89.
Consider “RNA1{m(G)[sp].m(G)[sp].m(G)[sp].m(U)[sp].m(C)[sp].d(C)[sp].d(A)[sp].d(C)[sp].d(C)[sp].d(A)[sp].d(C)[sp].d(T)[sp].d(A)[sp].d(G)[sp].d(C)[sp].m(C)[sp].m(A)[sp].m(G)[sp].m(U)[sp].m(A)}$$$$”, for which the TLR7 signal (NF-kB luciferase) (% of resiquimod alone) with CTNNB1 [1] was found to be 33.5. For the same substance, the TLR8 potentiation (NF-kB luciferase) (fold of resiquimod alone) with CTNNB1 [2] is 1.18.
In the case of “RNA1{m(A)[sp].m(C)[sp].m(C)[sp].m(A)[sp].m(C)[sp].d(C)[sp].d(C)[sp].d(A)[sp].d(C)[sp].d(T)[sp].d(T)[sp].d(G)[sp].d(G)[sp].d(C)[sp].d(A)[sp].m(G)[sp].m(A)[sp].m(C)[sp].m(C)[sp].m(A)}$$$$”, the TLR7 signal (NF-kB luciferase) (% of resiquimod alone) with CTNNB1 [1] amounted to 63.4. Moreover, in the data set with CTNNB1 [2], the TLR8 potentiation (NF-kB luciferase) (fold of resiquimod alone) stood at 1.71.
Turning to “RNA1{m(G)[sp].m(U)[sp].m(C)[sp].m(C)[sp].m(A)[sp].d(A)[sp].d(G)[sp].d(A)[sp].d(T)[sp].d(C)[sp].d(A)[sp].d(G)[sp].d(C)[sp].d(A)[sp].d(G)[sp].m(U)[sp].m(C)[sp].m(U)[sp].m(C)[sp].m(A)}$$$$”, the TLR7 signal (NF-kB luciferase) (% of resiquimod alone) in the data set with CTNNB1 [1] turned out to be 32.6. In addition, in the data set with CTNNB1 [2], the TLR8 potentiation (NF-kB luciferase) (fold of resiquimod alone) stood at 1.96.
In the data set with CTNNB1 [1], “RNA1{m(U)[sp].m(U)[sp].m(C)[sp].m(U)[sp].m(G)[sp].d(C)[sp].d(A)[sp].d(G)[sp].d(C)[sp].d(T)[sp].d(T)[sp].d(C)[sp].d(C)[sp].d(T)[sp].d(T)[sp].m(G)[sp].m(U)[sp].m(C)[sp].m(C)[sp].m(U)}$$$$” showed a TLR7 signal (NF-kB luciferase) (% of resiquimod alone) of 42.7. Moreover, in the data set with CTNNB1 [2], the TLR8 potentiation (NF-kB luciferase) (fold of resiquimod alone) amounted to 4.06.
Turning to “RNA1{m(A)[sp].m(C)[sp].m(C)[sp].m(C)[sp].m(A)[sp].d(A)[sp].d(G)[sp].d(G)[sp].d(C)[sp].d(A)[sp].d(T)[sp].d(C)[sp].d(C)[sp].d(T)[sp].d(G)[sp].m(G)[sp].m(C)[sp].m(C)[sp].m(A)[sp].m(U)}$$$$”, the TLR7 signal (NF-kB luciferase) (% of resiquimod alone) with CTNNB1 [1] amounted to 70.7. Besides, in the data set with CTNNB1 [2], the TLR8 potentiation (NF-kB luciferase) (fold of resiquimod alone) was determined as 2.29.
In turn, “RNA1{m(C)[sp].m(U)[sp].m(C)[sp].m(U)[sp].m(U)[sp].d(G)[sp].d(A)[sp].d(A)[sp].d(G)[sp].d(C)[sp].d(A)[sp].d(T)[sp].d(C)[sp].d(G)[sp].d(T)[sp].m(A)[sp].m(U)[sp].m(C)[sp].m(A)[sp].m(C)}$$$$” had a TLR7 signal (NF-kB luciferase) (% of resiquimod alone) with CTNNB1 [1] of 93.4. For the same substance, the TLR8 potentiation (NF-kB luciferase) (fold of resiquimod alone) in the data set with CTNNB1 [2] turned out to be 2.71.
The substance “RNA1{m(G)[sp].m(G)[sp].m(A)[sp].m(U)[sp].m(C)[sp].d(T)[sp].d(G)[sp].d(C)[sp].d(A)[sp].d(T)[sp].d(G)[sp].d(C)[sp].d(C)[sp].d(C)[sp].d(T)[sp].m(C)[sp].m(A)[sp].m(U)[sp].m(C)[sp].m(U)}$$$$” showed a TLR7 signal (NF-kB luciferase) (% of resiquimod alone) in the data set with CTNNB1 [1] of 47.9. For the same substance, the TLR8 potentiation (NF-kB luciferase) (fold of resiquimod alone) with CTNNB1 [2] stood at 1.15.
Substance “RNA1{m(C)[sp].m(A)[sp].m(G)[sp].m(A)[sp].m(U)[sp].d(A)[sp].d(G)[sp].d(C)[sp].d(A)[sp].d(C)[sp].d(C)[sp].d(T)[sp].d(T)[sp].d(C)[sp].d(A)[sp].m(G)[sp].m(C)[sp].m(A)[sp].m(C)[sp].m(U)}$$$$” had a TLR7 signal (NF-kB luciferase) (% of resiquimod alone) in the data set with CTNNB1 [1] of 126. In the data set with CTNNB1 [2], the TLR8 potentiation (NF-kB luciferase) (fold of resiquimod alone) was found to be 3.22.
With “RNA1{m(C)[sp].m(U)[sp].m(U)[sp].m(G)[sp].m(G)[sp].d(T)[sp].d(G)[sp].d(T)[sp].d(C)[sp].d(G)[sp].d(G)[sp].d(C)[sp].d(T)[sp].d(G)[sp].d(G)[sp].m(U)[sp].m(C)[sp].m(A)[sp].m(G)[sp].m(A)}$$$$”, in the data set with CTNNB1 [1], the TLR7 signal (NF-kB luciferase) (% of resiquimod alone) came to 79.8. For the same substance, the TLR8 potentiation (NF-kB luciferase) (fold of resiquimod alone) in the data set with CTNNB1 [2] turned out to be 2.15.
In turn, “RNA1{m(A)[sp].m(C)[sp].m(U)[sp].m(G)[sp].m(C)[sp].d(A)[sp].d(T)[sp].d(T)[sp].d(C)[sp].d(T)[sp].d(G)[sp].d(G)[sp].d(G)[sp].d(C)[sp].d(C)[sp].m(A)[sp].m(U)[sp].m(C)[sp].m(U)[sp].m(C)}$$$$” registered a TLR7 signal (NF-kB luciferase) (% of resiquimod alone) with CTNNB1 [1] of 73.2. For the same substance, the TLR8 potentiation (NF-kB luciferase) (fold of resiquimod alone) with CTNNB1 [2] came to 2.96.
Regarding “RNA1{m(G)[sp].m(G)[sp].m(U)[sp].m(C)[sp].m(C)[sp].d(A)[sp].d(T)[sp].d(A)[sp].d(C)[sp].d(C)[sp].d(C)[sp].d(A)[sp].d(A)[sp].d(G)[sp].d(G)[sp].m(C)[sp].m(A)[sp].m(U)[sp].m(C)[sp].m(C)}$$$$”, the TLR7 signal (NF-kB luciferase) (% of resiquimod alone) with CTNNB1 [1] worked out at 105. For the same substance, the TLR8 potentiation (NF-kB luciferase) (fold of resiquimod alone) with CTNNB1 [2] is 1.
On the same counts, the results for “RNA1{m(G)[sp].m(G)[sp].m(U)[sp].m(G)[sp].m(G)[sp].d(T)[sp].d(G)[sp].d(G)[sp].d(C)[sp].d(C)[sp].d(A)[sp].d(C)[sp].d(C)[sp].d(C)[sp].d(A)[sp].m(U)[sp].m(C)[sp].m(U)[sp].m(C)[sp].m(A)}$$$$” are 75.6 and 1.11.
“RNA1{m(U)[sp].m(C)[sp].m(U)[sp].m(U)[sp].m(A)[sp].d(T)[sp].d(A)[sp].d(A)[sp].d(T)[sp].d(T)[sp].d(A)[sp].d(T)[sp].d(T)[sp].d(G)[sp].d(C)[sp].m(A)[sp].m(A)[sp].m(G)[sp].m(U)[sp].m(G)}$$$$” came in with a TLR7 signal (NF-kB luciferase) (% of resiquimod alone) in the data set with CTNNB1 [1] of 110. In addition, the TLR8 potentiation (NF-kB luciferase) (fold of resiquimod alone) with CTNNB1 [2] was found to be 4.58.
In the data set with CTNNB1 [1], “RNA1{m(U)[sp].m(G)[sp].m(C)[sp].m(U)[sp].m(U)[sp].d(A)[sp].d(T)[sp].d(T)[sp].d(T)[sp].d(T)[sp].d(A)[sp].d(A)[sp].d(G)[sp].d(C)[sp].d(A)[sp].m(U)[sp].m(A)[sp].m(U)[sp].m(U)[sp].m(A)}$$$$” gave a TLR7 signal (NF-kB luciferase) (% of resiquimod alone) of 66.4. Further, the TLR8 potentiation (NF-kB luciferase) (fold of resiquimod alone) with CTNNB1 [2] amounted to 2.73.
As to “RNA1{m(A)[sp].m(C)[sp].m(C)[sp].m(C)[sp].m(A)[sp].d(C)[sp].d(T)[sp].d(T)[sp].d(G)[sp].d(G)[sp].d(C)[sp].d(A)[sp].d(G)[sp].d(A)[sp].d(C)[sp].m(C)[sp].m(A)[sp].m(U)[sp].m(C)[sp].m(A)}$$$$”, the TLR7 signal (NF-kB luciferase) (% of resiquimod alone) with CTNNB1 [1] amounted to 65.8. Also, the TLR8 potentiation (NF-kB luciferase) (fold of resiquimod alone) with CTNNB1 [2] came to 2.74.
